Residues, ends and D or L forms follow the SMILES beside them.

The source of these data is patent EP0846269B1, “A METHOD OF DETERMINING THE DEGREE OF AGGREGATION OF THE BETA A4 PEPTIDE” (Aventis Pharmaceuticals Inc., priority 1995, dated 1997).

This assay concerns the target β-amyloid (also known as βA4) peptide (Homo sapiens, UniProt P05067). Nature of the assay: Bradford dye (Coomassie Brilliant Blue G-250) assay of β-amyloid peptide aggregation, absorbance at 595 nm. Type of assay: biochemical. As to conditions: for inhibition at 500 µM: 500 µM compound; for inhibition at 1000 µM: 1 mM (or 1000 µM) compound. Here is the method:
β-amyloid (also known as βA4) peptide was dissolved in 100% dimethylsulfoxide (DMSO) at 10 mg/mL (or 2500 µM) concentration. The resultant solution was diluted to 1 mg/ml (or 250 µM) stock in Phosphate Buffered Saline (PBS), pH 7.4, just prior to setting up the assay and dispensed in individual sample wells of a Corning 96-well plate at 16µL per well (i.e. a final concentration of 25 µM). All treatments were done in triplicate.
In this example, the candidate compound was added to the test wells at three different concentrations (250µM, 500µM and 1mM). Total volume in each well was brought up to 160µL with PBS. For untreated control wells, no compound was added to the β-amyloid peptide, and the total volume was made to 160µL with PBS. The plates were sealed with parafilm and incubated at 37°C for 48 hours.
At the end of the incubation period, the plates were taken out and 25µL of Bio-Rad protein assay dye reagent (Bradford dye) was added to all the wells with samples. A standard curve was also set up at this time for estimation of fresh (also considered as unaggregared) peptide absorbance. The dye was mixed by pipeting and the plates quickly spun at 2500 rpm to remove bubbles.
The absorbance was read at 595 nm in a Dynatech MR5000 plate reader 15 minutes after adding the dye. The percent decrease in aggregation of β-amyloid due to the addition of candidate compound A41920t which is a 8-mer peptide of sequence Glutamine-Lysine-Leucine-Valine-Threonine-Threonine-Alanine-Glutamate ([…]) was calculated from the difference between untreated aggregated peptide and the treated aggregated peptide.
The procedure of Example 1 was repeated except that hydrogen peroxide (10µL of 30% stock) was added to the wells in a 96-well plate with 16µL of the 1 mg/mL β-amyloid stock. The final volume was then brought up to 160µL by adding 134µL of PBS to these wells. The plate was sealed and incubated at 37°C for 48 hours.
At the end of the incubation period, the plates were taken out and 25µL of Bio-Rad protein assay dye reagent (Bradford dye) was added to all the wells with samples as in Example 1. A standard curve was again used for estimation of fresh (also considered as unaggregated) peptide absorbance. The dye was mixed by pipeting and the plates quickly spun at 2500 rpm to remove bubbles.
The absorbance was read at 595nm in the Dynatech MR5000 plate reader 15 minutes after adding the dye. The amount of aggregation was estimated by subtracting background and taking the difference between the fresh and hydrogen peroxide treated β-amyloid readings. The difference was expressed as percent over fresh or unaggregated peptide.

Where [1] appears, read: 25 µM β-amyloid, PBS pH 7.4, 37°C, 48 hours, read-out: percent decrease in aggregation of β-amyloid.

Sequence of β-amyloid (also known as βA4) peptide (P05067 672-713 limits assumed): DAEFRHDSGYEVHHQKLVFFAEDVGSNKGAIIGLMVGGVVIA

Consider `CCCn1cnc2c1c(=O)n(CCCCC(C)=O)c(=O)n2C` [propentofylline, 1-(5'-oxohexyl)-3-methyl-7-propyl-2,6-(1H,3H)-purinedione], for which, under setting [1], the inhibition at 500 µM is 29.7% and the inhibition at 1000 µM turned out to be 37.4%.

Take `CC(C)CC(NC(=O)C(CCCCN)NC(=O)C(N)CCC(N)=O)C(=O)NC(C(=O)NC(C(=O)NC(C(=O)NC(C)C(=O)NC(CCC(=O)O)C(=O)O)C(C)O)C(C)O)C(C)C` (stereo not drawn) [A41920t, Glutamine-Lysine-Leucine-Valine-Threonine-Threonine-Alanine-Glutamate (QKLVTTAE)] (H-QKLVTTAE-OH; configuration not given here): the inhibition at 250 µM (250 µM compound, 25 µM β-amyloid, PBS pH 7.4, 37°C, 48 hours, read-out: percent decrease in aggregation of β-amyloid) came out at 48.1%. In addition, under setting [1], the inhibition at 500 µM worked out at 52.4% and the inhibition at 1000 µM is 32.3%.

`OO` [hydrogen peroxide] registered a percentage of aggregation (10µL of 30% stock in 160µL, 37°C, after 48 hrs, percent over fresh or unaggregated peptide) of 97.7%.
